# Test results from US9957246B2, “Prodrugs of tetrahydrocannabinol, compositions comprising prodrugs of tetrahydrocannabinol and methods of using the same” (Zynerba Pharmaceuticals, Inc., priority 2007, dated 2018).
# Columns and labels:
# [1] = In vitro human skin permeation, flow-through diffusion cells; details: for Flux enhancement: total THC equivalents
# [2] = Plasma stability of prodrugs (bioconversion to parent drug); format: in vitro ADME
# Experimental: Approximately 1 mg/mL of stock solution of each prodrug was prepared in 100 μL of ethanol and 900 μL of acetonitrile. Next, 10 μL of stock was spiked into 1 mL of plasma and vortexed. The samples were kept sealed in an amber vial and samples were obtained to analyze for bioconversion to parent drug.
# An approximated 1 mg/mL stock solution of each prodrug was prepared in 100 μL of ethanol and 900 μL of acetonitrile. Next, 10 μL of stock was spiked into 1 mL of plasma and vortexed. The samples were kept sealed in an amber vial and samples were obtained to analyze for bioconversion to parent drug.
# Approximately 1 mg/mL of stock solution of each prodrug was prepared in 100 μL of ethanol and 900 μL of acetonitrile. Ten μL of stock was spiked into 1 mL of plasma and vortexed. The samples were kept sealed in an amber vial and samples were obtained to analyze for bioconversion to parent drug.
# [3] = Table 4, gel formulation, analyte: THC from prodrug
# [4] = Table 4, gel formulation, analyte: THC or intact prodrug (PD)
# [5] = Table 17, 90:8:2 PG:H2O:IPM donor solution, analyte: THC from prodrug
# [6] = Table 17, 90:8:2 PG:H2O:IPM donor solution, analyte: THC or intact prodrug as applied
# [7] = Table 17, 90:8:2 PG:H2O:IPM donor solution
# [8] = Table 17, 90:8:2 PG:H2O:IPM donor solution, total THC equivalents (THC and/or prodrug)
# [9] = Table 7, 2.36:1.18:1 PG:ethanol:H2O donor solution, analyte: THC from prodrug
# [10] = Table 7, 2.36:1.18:1 PG:ethanol:H2O donor solution, analyte: THC or intact prodrug as applied
# [11] = Table 7, 2.36:1.18:1 PG:ethanol:H2O donor solution, total THC equivalents (THC and/or prodrug)
Structure (SMILES),"24 h skin conc [1, 3]","24 h skin conc [1, 4]","24 h cumulative amt [1, 5]","24 h cumulative amt [1, 6]","24 h skin conc [1, 6]","Flux [1, 6]","Lag time [1, 6]","Flux enhancement [1, 7]","24 h cumulative amt [1, 8]","24 h skin conc [1, 8]","Flux [1, 8]","Lag time [1, 8]","% Prodrug at time (h) ([2]; Table 15, 0.1 h)","% Prodrug at time (h) ([2]; Table 15, 1 h)","% Prodrug at time (h) ([2]; Table 15, 2.5 h)","% Prodrug at time (h) ([2]; Table 11, 0.1 h)","% Prodrug at time (h) ([2]; Table 11, 1 h)","% Prodrug at time (h) ([2]; Table 11, 22 h)","% Prodrug at time (h) ([2]; Table 11, 24 h)","% Prodrug at time (h) ([2]; Table 11, 42 h)",other results
"CCCCCc1cc(OC(=O)COCCOCCOCCOC)c2c(c1)OC(C)(C)[C@@H]1CCC(C)=C[C@@H]21 [ALL00117, Δ^9-Tetrahydrocannabinol 3,6,9,12-tetraoxatridecanoyl ester]",0.7 ± 0.1 µmol/g,13.8 ± 4.1 µmol/g,0.7 ± 0.7 nmol,3.0 ± 0.3 nmol,7.3 ± 1.8 µmol/g,0.4 ± 0.1 nmol/cm^2/h,15.1 ± 0.2 h,0.45,3.7 ± 1.0 nmol,7.3 ± 1.8 µmol/g,0.5 ± 0.1 nmol/cm^2/h,15.4 ± 0.3 h,100%,35%,7%,–,–,–,–,–,"24 h skin conc ([1]; Table 2, 100% PG donor solution, analyte: THC from prodrug): 1.1 ± 0.0 µmol/g; 24 h skin conc ([1]; Table 2, 100% PG donor solution, analyte: THC or intact prodrug (PD)): 8.9 ± 7.1 µmol/g; 24 h cumulative amt ([1]; Table 4, gel formulation): 1.7 ± 0.0 nmol; Flux ([1]; Table 4, gel formulation): 0.07 ± 0.00 nmol/cm^2/h; % Prodrug at time (h) ([2]; Table 15, 3.5 h): 5%"
"CCCCCc1cc(OC(=O)CN(C)C)c2c(c1)OC(C)(C)[C@@H]1CCC(C)=C[C@@H]21 [ALL00118, Δ^9-Tetrahydrocannabinol N,N-dimethylglycyl ester]",65.9 ± 24.7 µmol/g,48.8 ± 30.2 µmol/g,5.6 ± 0.5 nmol,5.8 ± 0.4 nmol,9.8 ± 5.2 µmol/g,0.5 ± 0.0 nmol/cm^2/h,12.8 ± 0.1 h,0.90,11.4 ± 0.7 nmol,13.5 ± 5.8 µmol/g,0.9 ± 0.1 nmol/cm^2/h,11.6 ± 0.2 h,100%,94%,81%,100%,94%,86%,81%,15%,"24 h skin conc ([1]; Table 3, 1:1:1 PG:ethanol:H2O donor solution, analyte: THC from prodrug): 7.1 ± 2.4 µmol/g; 24 h skin conc ([1]; Table 3, 1:1:1 PG:ethanol:H2O donor solution, analyte: THC or intact prodrug (PD)): 37.3 ± 23.2 µmol/g; 24 h skin conc [1, 5]: 3.7 ± 0.6 µmol/g; Flux [1, 5]: 0.4 ± 0.0 nmol/cm^2/h; Lag time [1, 5]: 10.2 ± 0.3 h; % Prodrug at time (h) ([2]; Table 15, 2 h): 86%; % Prodrug at time (h) ([2]; Table 15, 24 h): 15%"
"CCCCCc1cc(OC(=O)OCCOCCOCCOCCOC)c2c(c1)OC(C)(C)[C@@H]1CCC(C)=C[C@@H]21 [ALL00119, Δ^9-Tetrahydrocannabinol 3,6,9,12-tetraoxatridecyl carbonate]",–,–,–,–,–,–,–,–,–,–,–,–,–,–,–,100%,82%,64%,51%,0%,"24 h skin conc ([1]; Table 9, 2.36:1.18:1 pH = 5.5 PG:ethanol:H2O donor solution, analyte: THC or intact prodrug as applied): 13.6 ± 7.5 µmol/g; 24 h skin conc ([1]; Table 9, 2.36:1.18:1 pH = 5.5 PG:ethanol:H2O donor solution, total THC equivalents (THC and/or prodrug)): 13.6 ± 7.5 µmol/g"
"CCCCCc1cc(OC(=O)CNC=O)c2c(c1)OC(C)(C)[C@@H]1CCC(C)=C[C@@H]21 [ALL00120, Δ^9-Tetrahydrocannabinol N-formylglycyl ester]",–,–,–,–,–,–,–,–,–,–,–,–,–,–,–,70%,8%,0%,0%,0%,"24 h cumulative amt [1, 9]: 8.8 ± 1.2 nmol; 24 h skin conc [1, 9]: 3.1 ± 1.1 µmol/g; Flux [1, 9]: 0.6 ± 0.1 nmol/cm^2/h; Lag time [1, 9]: 9.2 ± 0.8 h; 24 h cumulative amt [1, 10]: 30.5 ± 7.0 nmol; 24 h skin conc [1, 10]: 47.1 ± 6.3 µmol/g; Flux [1, 10]: 2.0 ± 0.5 nmol/cm^2/h; Lag time [1, 10]: 8.1 ± 1.6 h; Flux enhancement ([1]; Table 7, 2.36:1.18:1 PG:ethanol:H2O donor solution): 0.87; 24 h cumulative amt [1, 11]: 39.3 ± 6.6 nmol; 24 h skin conc [1, 11]: 50.2 ± 7.1 µmol/g; Flux [1, 11]: 2.7 ± 0.5 nmol/cm^2/h; Lag time [1, 11]: 8.4 ± 1.3 h; 24 h skin conc ([1]; Table 8, gel formulation, analyte: THC from prodrug): 3.1 ± 2.1 µmol/g; 24 h skin conc ([1]; Table 8, gel formulation, analyte: THC or intact prodrug as applied): 44.8 ± 1.6 µmol/g; 24 h skin conc ([1]; Table 8, gel formulation, total THC equivalents (THC and/or prodrug)): 47.9 ± 2.8 µmol/g"
